System: 17S resistant S. aureus USA300 strains
Assay: Susceptibility of 17S resistant strains
Type: cell-based, Staphylococcus aureus
Conditions: 17S resistant S. aureus USA300 strains tested against 1S

humimycin A [1S]
cross-resistance of 17S resistant strains: cross-resistance

— publication PMC7163398 (ACS infectious diseases, 2017)
